Data on four compounds can be found in ChEMBL document CHEMBL4325853, “Design, synthesis and antibacterial evaluation of 2,4-disubstituted-6-thiophenyl-pyrimidines” (Eur J Med Chem, 2019).

In one assay the test system is Bacillus subtilis. Kind of assay: Antibacterial activity against Bacillus subtilis 168 after 18 hrs by broth microdilution method. Format: functional. To be noted: subsp. subtilis str. 168, 18 h. On the technique in general: In broth dilution the organism is exposed to a series of concentrations in liquid medium.
Assay [1] deals with Staphylococcus aureus. Kind of assay: Antibacterial activity against Staphylococcus aureus ATCC 29213 after 18 hrs by broth microdilution method. To be noted: ATCC 29213, 18 h. The format is functional.
Assay [2] deals with Enterococcus faecium. The assay is described as follows: Antibacterial activity against Enterococcus faecium ATCC 49624 after 18 hrs by broth microdilution method. Format: functional. Conditions: ATCC 49624, 18 h.
In assay [3] the test system is Enterococcus faecalis. The assay is described as follows: Antibacterial activity against Enterococcus faecalis ATCC 29212 after 18 hrs by broth microdilution method. Conditions: ATCC 29212, 18 h. Format: functional.
Assay [4] has as its system Staphylococcus epidermidis. Kind of assay: Antibacterial activity against Staphylococcus epidermidis ATCC 12228 after 18 hrs by broth microdilution method. Format: functional. To be noted: ATCC 12228, 18 h.
The test system of another assay is Escherichia coli. Kind of assay: Antibacterial activity against Escherichia coli ATCC 25922 after 18 hrs by broth microdilution method. Conditions: ATCC 25922, 18 h. Format: functional.
The target of assay [5] is T1, Cell division protein FtsZ (Staphylococcus aureus) (UniProt P0A031).
T1 sequence (whole entry): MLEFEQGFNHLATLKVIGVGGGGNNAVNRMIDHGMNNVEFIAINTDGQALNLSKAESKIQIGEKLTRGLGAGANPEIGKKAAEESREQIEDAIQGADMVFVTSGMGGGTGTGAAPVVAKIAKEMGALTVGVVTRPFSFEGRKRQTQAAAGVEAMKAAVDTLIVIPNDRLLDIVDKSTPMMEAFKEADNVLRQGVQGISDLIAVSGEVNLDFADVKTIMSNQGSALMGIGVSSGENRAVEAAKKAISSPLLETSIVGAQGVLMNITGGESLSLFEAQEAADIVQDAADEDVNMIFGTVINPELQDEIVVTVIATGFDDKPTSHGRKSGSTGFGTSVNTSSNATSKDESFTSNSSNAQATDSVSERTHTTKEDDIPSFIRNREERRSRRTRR
The assay is described as follows: Inhibition of recombinant Staphylococcus aureus FtsZ polymerization at 8 ug/ml by 90 degree light scattering-based fluorescence spectrometric analysis.

The target in assay [6] is T1, Cell division protein FtsZ (Staphylococcus aureus). The assay is described as follows: Inhibition of recombinant Staphylococcus aureus FtsZ GTPase activity assessed as reduction in inorganic phosphate formation after 30 mins by colorimetric method.
Assay [7] has as its system Staphylococcus aureus. Kind of assay: Antibacterial activity against Staphylococcus aureus ATCC 29213 after 10 passages by broth microdilution method. Format: functional, organism-based.
The test system of assay [8] is Staphylococcus aureus. Kind of assay: Ratio of MIC for Staphylococcus aureus ATCC 29213 after and before 11 to 21 serial passages. The format is functional.
Assay [9] has as its system Staphylococcus aureus. Kind of assay: Antibacterial activity against methicillin-resistant Staphylococcus aureus ATCC BAA41 after 18 hrs by broth microdilution method. Format: functional. Conditions: ATCC BAA41, 18 h.
In assay [10] the test system is Staphylococcus aureus. The assay is described as follows: Antibacterial activity against methicillin-resistant Staphylococcus aureus ATCC BAA1720 after 18 hrs by broth microdilution method. The format is functional. Conditions: ATCC BAA1720, 18 h.
Assay [11] relates to Staphylococcus aureus. The assay is described as follows: Antibacterial activity against methicillin-resistant Staphylococcus aureus ATCC 33591 after 18 hrs by broth microdilution method. Format: functional. Conditions: ATCC 33591, 18 h.
The test system of assay [12] is Staphylococcus aureus. The assay is described as follows: Antibacterial activity against methicillin-resistant Staphylococcus aureus ATCC 33592 after 18 hrs by broth microdilution method. To be noted: ATCC 33592, 18 h. The format is functional.
In assay [13] the test system is Staphylococcus aureus. The assay is described as follows: Antibacterial activity against methicillin-resistant Staphylococcus aureus ATCC 43300 after 18 hrs by broth microdilution method. To be noted: ATCC 43300, 18 h. Format: functional.
The subject of assay [14] is Enterococcus faecalis. The assay is described as follows: Antibacterial activity against vancomycin-resistant Enterococcus faecalis ATCC 51575 after 18 hrs by broth microdilution method. Format: functional. Conditions: ATCC 51575, 18 h.
The subject of assay [15] is Enterococcus faecalis. The assay is described as follows: Antibacterial activity against vancomycin-resistant Enterococcus faecalis ATCC 700221 after 18 hrs by broth microdilution method. Conditions: ATCC 700221, 18 h. The format is functional.
In assay [16] the test system is Staphylococcus aureus. The assay is described as follows: Potency index, ratio of berberine MIC to test compound MIC for Staphylococcus aureus ATCC 29213. The format is functional.
For assay [17], the system named is Enterococcus faecium. Kind of assay: Potency index, ratio of berberine MIC to test compound MIC for Enterococcus faecium ATCC 49624. The format is functional.
The subject of assay [18] is Enterococcus faecalis. Kind of assay: Potency index, ratio of berberine MIC to test compound MIC for Enterococcus faecalis ATCC 29212. Format: functional.
For assay [19], the system named is Staphylococcus epidermidis. Kind of assay: Potency index, ratio of berberine MIC to test compound MIC for Staphylococcus epidermidis ATCC 12228. The format is functional.

In brackets after ≈: the same amount, converted by molar mass. Activity calls are given as the source filed them. The calls are words filed in the database; no cut-off is given here.

In the case of `Cc1nc(CCN2CCCN(Cc3ccc(C(C)C)cc3)CC2)cc(-c2cccs2)n1`, the MIC90 with Bacillus subtilis is 64 µg/mL (≈ 147 µM); against Staphylococcus aureus [1], 32 µg/mL (≈ 73.6 µM); with Enterococcus faecium [2], 64 µg/mL (≈ 147 µM); in the assay with Enterococcus faecalis [3] it was 64 µg/mL (≈ 147 µM); in [4], 32 µg/mL (≈ 73.6 µM); against Escherichia coli it was 128 µg/mL (≈ 294 µM). Further, the inhibition result in assay [5] is “Active”. Besides, the inhibition result in assay [6] was “Dose-dependent effect”. Further, the result in the assay on Staphylococcus aureus [7] and with Staphylococcus aureus [8] was Active.
`COc1ccc2cc3[n+](cc2c1OC)CCc1cc2c(cc1-3)OCO2` [BERBERINE]: the MIC90 against Bacillus subtilis was 128 µg/mL; against Staphylococcus aureus [1], 128 µg/mL; against Enterococcus faecium [2], over 192 µg/mL; against Enterococcus faecalis [3], over 192 µg/mL; in [4] it was 96 µg/mL; in the assay with Escherichia coli, over 192 µg/mL. The MIC90 is 192 µg/mL against Staphylococcus aureus [9]; 192 µg/mL against Staphylococcus aureus [10]; 192 µg/mL with Staphylococcus aureus [11]; 192 µg/mL against Staphylococcus aureus [12]; 192 µg/mL against Staphylococcus aureus [13]; over 192 µg/mL with Enterococcus faecalis [14]. The MIC90 with Enterococcus faecalis [15] is over 192 µg/mL.
As to `Fc1cccc(CN2CCCN(CCc3cc(-c4cccs4)nc(-c4ccncc4)n3)CC2)c1`, the MIC90 with Bacillus subtilis was 8 µg/mL (≈ 16.9 µM); against Staphylococcus aureus [1], 8 µg/mL (≈ 16.9 µM); in the assay on Enterococcus faecium [2] it was 16 µg/mL (≈ 33.8 µM); against Enterococcus faecalis [3] it was 16 µg/mL (≈ 33.8 µM); in assay [4], 8 µg/mL (≈ 16.9 µM); in the assay on Escherichia coli it was over 128 µg/mL. The Ratio (in the assay with Staphylococcus aureus [16]; in the assay on Enterococcus faecium [17]; in the assay on Enterococcus faecalis [18]; in [19]) was 50 - 100 throughout.
With `Fc1ccc(CN2CCCN(CCc3cc(-c4cccs4)nc(-c4ccncc4)n3)CC2)cc1F`, the MIC90 in the assay with Bacillus subtilis amounted to 4 µg/mL (≈ 8.14 µM); against Staphylococcus aureus [1] it was 4 µg/mL (≈ 8.14 µM); in the assay on Enterococcus faecium [2], 8 µg/mL (≈ 16.3 µM); with Enterococcus faecalis [3] it was 8 µg/mL (≈ 16.3 µM); in assay [4], 4 µg/mL (≈ 8.14 µM); with Escherichia coli, 128 µg/mL (≈ 260 µM). The Ratio (in the assay on Staphylococcus aureus [16]; in the assay on Enterococcus faecium [17]; in the assay with Enterococcus faecalis [18]; in [19]) was 50 - 100 throughout.

In general, MIC90 refers to the lowest concentration that inhibits either 90% of growth or 90% of the strains tested, depending on the study.
